Test results published in ChEMBL document CHEMBL4507304, “Data for DCP probe TP-021” (2021).

Columns and labels:
[1] = molecular target: Serine/threonine-protein kinase 26 (Homo sapiens) (UniProt Q9P289); details: Compound concentration 1000.0 nM
[2] = molecular target: Serine/threonine-protein kinase BRSK2 (Homo sapiens) (UniProt Q8IWQ3); details: Compound concentration 1000.0 nM
[3] = molecular target: Mast/stem cell growth factor receptor Kit (Homo sapiens) (UniProt P10721); details: Compound concentration 1000.0 nM
[4] = test system: Tyrosine-protein kinase ABL1 (Homo sapiens), P00519 [F317I]; details: Compound concentration 1000.0 nM
[5] = molecular target: Bone morphogenetic protein receptor type-2 (Homo sapiens) (UniProt Q13873); details: Compound concentration 1000.0 nM
[6] = molecular target: Ribosomal protein S6 kinase alpha-2 (Homo sapiens) (UniProt Q15349); details: Compound concentration 1000.0 nM
[7] = molecular target: Mitogen-activated protein kinase 15 (Homo sapiens) (UniProt Q8TD08); details: Compound concentration 1000.0 nM
[8] = molecular target: Calcium/calmodulin-dependent protein kinase type II subunit alpha (Homo sapiens) (UniProt Q9UQM7); details: Compound concentration 1000.0 nM
[9] = molecular target: Serine/threonine-protein kinase 33 (Homo sapiens) (UniProt Q9BYT3); details: Compound concentration 1000.0 nM
[10] = molecular target: Cyclin-dependent kinase-like 1 (Homo sapiens) (UniProt Q00532); details: Compound concentration 1000.0 nM
Sequence of Cyclin-dependent kinase-like 1 (Homo sapiens) (Q00532 whole entry): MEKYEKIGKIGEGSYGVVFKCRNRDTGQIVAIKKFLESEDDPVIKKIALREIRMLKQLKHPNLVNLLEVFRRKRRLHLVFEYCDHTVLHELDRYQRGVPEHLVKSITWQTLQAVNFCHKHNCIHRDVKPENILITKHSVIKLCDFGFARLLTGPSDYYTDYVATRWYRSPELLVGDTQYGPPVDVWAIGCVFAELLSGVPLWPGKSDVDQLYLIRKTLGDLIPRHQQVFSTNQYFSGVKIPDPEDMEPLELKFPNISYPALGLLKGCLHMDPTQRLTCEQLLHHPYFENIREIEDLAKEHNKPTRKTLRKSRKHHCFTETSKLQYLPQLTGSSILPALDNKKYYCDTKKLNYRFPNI

[11] = molecular target: Serine/threonine-protein kinase ULK1 (Homo sapiens) (UniProt O75385); details: Compound concentration 1000.0 nM
[12] = molecular target: Phosphatidylinositol 4-phosphate 5-kinase type-1 alpha (Homo sapiens) (UniProt Q99755); details: Compound concentration 1000.0 nM
[13] = molecular target: Inhibitor of nuclear factor kappa-B kinase subunit alpha (Homo sapiens) (UniProt O15111); details: Compound concentration 1000.0 nM
[14] = test system: Serine/threonine-protein kinase B-raf (Homo sapiens), P15056 [V600E]; details: Compound concentration 1000.0 nM
Sequence of Serine/threonine-protein kinase B-raf (Homo sapiens), P15056 [V600E] (P15056 whole entry V600E): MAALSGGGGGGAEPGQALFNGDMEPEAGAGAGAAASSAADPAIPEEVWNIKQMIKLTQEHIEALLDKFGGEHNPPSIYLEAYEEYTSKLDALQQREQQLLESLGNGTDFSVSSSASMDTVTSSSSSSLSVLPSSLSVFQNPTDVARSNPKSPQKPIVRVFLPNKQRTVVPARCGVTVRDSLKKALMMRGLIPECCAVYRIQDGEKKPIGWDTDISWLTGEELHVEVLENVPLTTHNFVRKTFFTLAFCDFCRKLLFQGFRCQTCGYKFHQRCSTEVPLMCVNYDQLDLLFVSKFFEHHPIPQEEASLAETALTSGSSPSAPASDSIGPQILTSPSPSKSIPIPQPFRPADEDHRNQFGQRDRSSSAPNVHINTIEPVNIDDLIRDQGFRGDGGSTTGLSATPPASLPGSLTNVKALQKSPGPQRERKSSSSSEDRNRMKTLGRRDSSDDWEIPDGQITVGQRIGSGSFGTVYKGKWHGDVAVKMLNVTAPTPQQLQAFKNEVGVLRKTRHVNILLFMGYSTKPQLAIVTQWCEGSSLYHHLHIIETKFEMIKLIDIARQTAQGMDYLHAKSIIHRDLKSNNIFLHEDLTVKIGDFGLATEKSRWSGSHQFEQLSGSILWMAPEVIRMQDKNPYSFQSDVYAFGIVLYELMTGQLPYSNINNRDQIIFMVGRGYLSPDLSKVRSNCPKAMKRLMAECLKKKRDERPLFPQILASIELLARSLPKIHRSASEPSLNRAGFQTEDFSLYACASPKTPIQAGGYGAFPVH

[15] = molecular target: Ribosomal protein S6 kinase alpha-1 (Homo sapiens) (UniProt Q15418); details: Compound concentration 1000.0 nM
[16] = molecular target: Histamine H3 receptor (Homo sapiens) (UniProt Q9Y5N1); details: Compound concentration 10.0 uM
[17] = molecular target: Serine/threonine-protein kinase 17B (Homo sapiens) (UniProt O94768); details: Compound concentration 1000.0 nM
[18] = molecular target: Tyrosine-protein kinase ABL1 (Homo sapiens) (UniProt P00519); details: Compound concentration 1000.0 nM
[19] = molecular target: Casein kinase I isoform gamma-1 (Homo sapiens) (UniProt Q9HCP0); details: Compound concentration 1000.0 nM
[20] = molecular target: Phosphatidylinositol 4,5-bisphosphate 3-kinase catalytic subunit beta isoform (Homo sapiens) (UniProt P42338); details: Compound concentration 1000.0 nM
[21] = molecular target: Sigma intracellular receptor 2 (Homo sapiens) (UniProt Q5BJF2); details: Compound concentration 10.0 uM
Sequence of Sigma intracellular receptor 2 (Homo sapiens) (Q5BJF2 whole entry): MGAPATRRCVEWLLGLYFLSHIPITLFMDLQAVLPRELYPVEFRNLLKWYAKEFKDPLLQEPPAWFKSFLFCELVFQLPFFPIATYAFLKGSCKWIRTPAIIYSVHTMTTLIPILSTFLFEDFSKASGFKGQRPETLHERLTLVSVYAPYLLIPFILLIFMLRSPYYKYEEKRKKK

[22] = test system: Tyrosine-protein kinase ABL1 (Homo sapiens), P00519 [Y253F]; details: Compound concentration 1000.0 nM
[23] = molecular target: MAP/microtubule affinity-regulating kinase 4 (Homo sapiens) (UniProt Q96L34); details: Compound concentration 1000.0 nM
[24] = molecular target: Mitogen-activated protein kinase kinase kinase 1 (Homo sapiens) (UniProt Q13233); details: Compound concentration 1000.0 nM
[25] = test system: Phosphatidylinositol 4,5-bisphosphate 3-kinase catalytic subunit alpha isoform (Homo sapiens), P42336 [E545K]; details: Compound concentration 1000.0 nM
[26] = test system: Phosphatidylinositol 4,5-bisphosphate 3-kinase catalytic subunit alpha isoform (Homo sapiens), P42336 [C420R]; details: Compound concentration 1000.0 nM
Sequence of Phosphatidylinositol 4,5-bisphosphate 3-kinase catalytic subunit alpha isoform (Homo sapiens), P42336 [C420R] (P42336 whole entry C420R, canonical isoform): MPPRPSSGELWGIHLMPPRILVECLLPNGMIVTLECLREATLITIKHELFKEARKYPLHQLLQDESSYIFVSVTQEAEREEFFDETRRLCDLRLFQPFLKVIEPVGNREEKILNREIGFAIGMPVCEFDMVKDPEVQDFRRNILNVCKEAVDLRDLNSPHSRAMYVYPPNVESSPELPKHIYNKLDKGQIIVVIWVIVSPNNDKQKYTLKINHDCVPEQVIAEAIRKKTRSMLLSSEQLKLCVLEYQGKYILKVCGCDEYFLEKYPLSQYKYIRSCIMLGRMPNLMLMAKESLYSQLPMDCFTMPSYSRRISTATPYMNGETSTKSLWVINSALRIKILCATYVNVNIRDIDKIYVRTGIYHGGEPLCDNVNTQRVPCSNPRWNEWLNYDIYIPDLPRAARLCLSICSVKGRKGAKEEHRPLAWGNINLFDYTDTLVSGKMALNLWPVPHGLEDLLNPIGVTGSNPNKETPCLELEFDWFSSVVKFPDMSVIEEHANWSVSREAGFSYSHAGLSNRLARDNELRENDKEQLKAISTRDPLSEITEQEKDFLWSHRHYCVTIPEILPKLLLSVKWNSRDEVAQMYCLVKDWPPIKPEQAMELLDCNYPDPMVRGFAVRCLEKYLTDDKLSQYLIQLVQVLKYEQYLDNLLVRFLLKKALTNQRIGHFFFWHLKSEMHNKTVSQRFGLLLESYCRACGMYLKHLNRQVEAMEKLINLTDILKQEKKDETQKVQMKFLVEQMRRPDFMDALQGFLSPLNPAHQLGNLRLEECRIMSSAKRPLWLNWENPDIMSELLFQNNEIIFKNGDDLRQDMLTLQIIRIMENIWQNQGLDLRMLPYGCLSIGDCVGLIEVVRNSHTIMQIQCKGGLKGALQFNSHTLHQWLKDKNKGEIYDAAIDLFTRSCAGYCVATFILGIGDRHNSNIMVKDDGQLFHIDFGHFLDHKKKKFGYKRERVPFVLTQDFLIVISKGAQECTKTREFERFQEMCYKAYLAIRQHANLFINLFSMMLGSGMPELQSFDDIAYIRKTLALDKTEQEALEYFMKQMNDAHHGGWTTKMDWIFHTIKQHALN

[27] = molecular target: Dual specificity protein kinase CLK1 (Homo sapiens) (UniProt P49759); details: Compound concentration 1000.0 nM
[28] = molecular target: Misshapen-like kinase 1 (Homo sapiens) (UniProt Q8N4C8); details: Compound concentration 1000.0 nM
[29] = molecular target: Proto-oncogene tyrosine-protein kinase ROS (Homo sapiens) (UniProt P08922); details: Compound concentration 1000.0 nM
[30] = molecular target: Wee1-like protein kinase (Homo sapiens) (UniProt P30291); details: Compound concentration 1000.0 nM
[31] = molecular target: NT-3 growth factor receptor (Homo sapiens) (UniProt Q16288); details: Compound concentration 1000.0 nM
[32] = molecular target: Cyclin-dependent kinase 2 (Homo sapiens) (UniProt P24941); details: Compound concentration 1000.0 nM
[33] = molecular target: Transient receptor potential cation channel subfamily M member 6 (Homo sapiens) (UniProt Q9BX84); details: Compound concentration 1000.0 nM
[34] = molecular target: Casein kinase I isoform alpha-like (Homo sapiens) (UniProt Q8N752); details: Compound concentration 1000.0 nM
[35] = molecular target: Non-receptor tyrosine-protein kinase TYK2 (Homo sapiens) (UniProt P29597); details: Compound concentration 1000.0 nM
Sequence of Non-receptor tyrosine-protein kinase TYK2 (Homo sapiens) (P29597 whole entry): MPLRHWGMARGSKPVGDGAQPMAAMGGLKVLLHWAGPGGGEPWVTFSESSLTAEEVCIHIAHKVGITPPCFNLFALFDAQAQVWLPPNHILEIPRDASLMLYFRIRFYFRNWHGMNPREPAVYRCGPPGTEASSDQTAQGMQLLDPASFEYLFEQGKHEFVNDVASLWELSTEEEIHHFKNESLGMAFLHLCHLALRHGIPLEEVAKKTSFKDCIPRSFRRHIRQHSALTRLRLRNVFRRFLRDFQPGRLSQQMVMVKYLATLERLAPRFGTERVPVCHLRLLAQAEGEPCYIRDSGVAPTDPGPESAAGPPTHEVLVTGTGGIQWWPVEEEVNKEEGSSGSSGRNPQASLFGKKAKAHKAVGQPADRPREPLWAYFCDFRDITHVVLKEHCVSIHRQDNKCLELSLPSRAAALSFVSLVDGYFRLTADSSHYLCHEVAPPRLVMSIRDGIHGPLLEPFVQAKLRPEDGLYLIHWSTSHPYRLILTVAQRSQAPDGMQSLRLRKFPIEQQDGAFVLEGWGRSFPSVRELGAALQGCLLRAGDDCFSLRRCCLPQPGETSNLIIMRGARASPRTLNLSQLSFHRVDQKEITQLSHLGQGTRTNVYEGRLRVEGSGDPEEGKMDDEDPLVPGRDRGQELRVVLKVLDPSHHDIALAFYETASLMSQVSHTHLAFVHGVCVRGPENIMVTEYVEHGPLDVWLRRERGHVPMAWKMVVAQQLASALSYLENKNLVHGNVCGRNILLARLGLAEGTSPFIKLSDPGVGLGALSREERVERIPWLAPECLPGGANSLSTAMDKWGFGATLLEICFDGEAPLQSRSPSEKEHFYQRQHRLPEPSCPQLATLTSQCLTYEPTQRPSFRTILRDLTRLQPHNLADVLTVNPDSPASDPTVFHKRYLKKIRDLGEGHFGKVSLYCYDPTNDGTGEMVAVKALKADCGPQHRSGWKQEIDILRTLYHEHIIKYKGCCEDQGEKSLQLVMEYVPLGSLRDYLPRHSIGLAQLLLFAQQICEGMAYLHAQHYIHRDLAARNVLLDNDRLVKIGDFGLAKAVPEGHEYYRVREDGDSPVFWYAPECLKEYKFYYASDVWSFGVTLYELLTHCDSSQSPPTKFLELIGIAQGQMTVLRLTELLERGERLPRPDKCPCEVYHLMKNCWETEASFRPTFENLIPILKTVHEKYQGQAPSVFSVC

[36] = molecular target: Testis-specific serine/threonine-protein kinase 3 (Homo sapiens) (UniProt Q96PN8); details: Compound concentration 1000.0 nM
Sequence of Testis-specific serine/threonine-protein kinase 3 (Homo sapiens) (Q96PN8 whole entry): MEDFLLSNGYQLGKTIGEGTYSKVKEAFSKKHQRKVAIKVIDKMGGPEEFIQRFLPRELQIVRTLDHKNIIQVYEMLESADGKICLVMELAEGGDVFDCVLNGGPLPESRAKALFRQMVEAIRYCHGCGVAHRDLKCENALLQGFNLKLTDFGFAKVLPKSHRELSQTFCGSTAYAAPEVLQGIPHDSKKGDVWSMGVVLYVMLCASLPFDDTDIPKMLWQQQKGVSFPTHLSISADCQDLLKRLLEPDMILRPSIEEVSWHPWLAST

[37] = molecular target: Hepatocyte growth factor receptor (Homo sapiens) (UniProt P08581); details: Compound concentration 1000.0 nM
[38] = molecular target: Calcium/calmodulin-dependent protein kinase type II subunit gamma (Homo sapiens) (UniProt Q13555); details: Compound concentration 1000.0 nM
[39] = molecular target: Activin receptor type-1-like (Homo sapiens) (UniProt P37023); details: Compound concentration 1000.0 nM
[40] = molecular target: Serine/threonine-protein kinase SBK1 (Homo sapiens) (UniProt Q52WX2); details: Compound concentration 1000.0 nM
[41] = molecular target: BMP-2-inducible protein kinase (Homo sapiens) (UniProt Q9NSY1); details: Compound concentration 1000.0 nM
[42] = molecular target: Serine/threonine-protein kinase Nek7 (Homo sapiens) (UniProt Q8TDX7); details: Compound concentration 1000.0 nM
Sequence of Serine/threonine-protein kinase Nek7 (Homo sapiens) (Q8TDX7 whole entry, looked up): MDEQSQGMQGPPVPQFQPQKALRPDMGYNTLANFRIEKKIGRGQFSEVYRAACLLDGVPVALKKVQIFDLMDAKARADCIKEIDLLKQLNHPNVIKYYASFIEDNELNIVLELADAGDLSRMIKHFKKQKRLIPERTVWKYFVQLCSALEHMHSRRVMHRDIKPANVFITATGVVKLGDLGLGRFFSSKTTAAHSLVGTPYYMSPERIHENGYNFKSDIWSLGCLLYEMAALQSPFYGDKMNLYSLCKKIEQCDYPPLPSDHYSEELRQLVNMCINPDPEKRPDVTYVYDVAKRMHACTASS

[43] = molecular target: Dual specificity mitogen-activated protein kinase kinase 7 (Homo sapiens) (UniProt O14733); details: Compound concentration 1000.0 nM
Sequence of Dual specificity mitogen-activated protein kinase kinase 7 (Homo sapiens) (O14733 whole entry): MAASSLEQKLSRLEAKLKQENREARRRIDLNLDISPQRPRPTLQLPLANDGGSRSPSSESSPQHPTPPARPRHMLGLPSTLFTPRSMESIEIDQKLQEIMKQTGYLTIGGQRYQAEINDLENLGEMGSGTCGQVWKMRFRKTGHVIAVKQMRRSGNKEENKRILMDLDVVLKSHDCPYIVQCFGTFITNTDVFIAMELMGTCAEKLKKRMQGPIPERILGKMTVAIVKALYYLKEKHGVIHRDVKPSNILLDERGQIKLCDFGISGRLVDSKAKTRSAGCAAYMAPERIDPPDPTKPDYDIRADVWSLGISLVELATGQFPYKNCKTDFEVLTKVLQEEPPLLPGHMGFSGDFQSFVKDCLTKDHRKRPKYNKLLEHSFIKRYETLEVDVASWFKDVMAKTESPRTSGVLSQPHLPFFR

[44] = molecular target: Serine/threonine-protein kinase TBK1 (Homo sapiens) (UniProt Q9UHD2); details: Compound concentration 1000.0 nM
[45] = test system: Proto-oncogene tyrosine-protein kinase receptor Ret (Homo sapiens), P07949 [M918T]; details: Compound concentration 1000.0 nM

Sequence of Serine/threonine-protein kinase 26 (Homo sapiens) (Q9P289 2-416 limits assumed): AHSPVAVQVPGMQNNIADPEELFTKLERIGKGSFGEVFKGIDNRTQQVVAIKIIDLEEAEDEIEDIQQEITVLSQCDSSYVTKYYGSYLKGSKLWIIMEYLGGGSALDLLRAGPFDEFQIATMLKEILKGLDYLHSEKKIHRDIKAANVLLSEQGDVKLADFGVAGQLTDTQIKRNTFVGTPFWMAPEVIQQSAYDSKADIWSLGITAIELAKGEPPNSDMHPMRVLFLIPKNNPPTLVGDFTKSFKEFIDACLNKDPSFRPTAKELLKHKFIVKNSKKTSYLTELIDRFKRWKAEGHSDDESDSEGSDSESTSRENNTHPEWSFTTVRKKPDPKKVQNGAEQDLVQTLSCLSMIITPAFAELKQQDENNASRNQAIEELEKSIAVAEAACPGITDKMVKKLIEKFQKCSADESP

N#Cc1ccc(Nc2ccc3[nH]c(=O)[nH]c3c2)c(Cl)c1
inactive: residual activity [1] 96% | residual activity [2] 100% | residual activity [3] 100% | residual activity [4] 92% | residual activity [5] 91% | residual activity [6] 100% | residual activity [7] 100% | residual activity [8] 84% | residual activity [9] 93% | residual activity [10] 84% | residual activity [11] 81% | residual activity [12] 100% | residual activity [13] 100% | residual activity [14] 100% | residual activity [15] 100% | inhibition [16] 8.47% | residual activity [17] 100% | residual activity [18] 100% | residual activity [19] 100% | residual activity [20] 100% | inhibition [21] -4.12% | residual activity [22] 87% | residual activity [23] 99% | residual activity [24] 79% | residual activity [25] 79% | residual activity [26] 90% | residual activity [27] 100% | residual activity [28] 91% | residual activity [29] 100% | residual activity [30] 87% | residual activity [31] 100% | residual activity [32] 93% | residual activity [33] 100% | residual activity [34] 100% | residual activity [35] 100% | residual activity [36] 100% | residual activity [37] 94% | residual activity [38] 78% | residual activity [39] 100% | residual activity [40] 93% | residual activity [41] 91% | residual activity [42] 100% | residual activity [43] 100% | residual activity [44] 100% | residual activity [45] 100%

O=C1CCc2cc(Nc3cc(OC4CCOCC4)c([N+](=O)[O-])cc3Cl)ccc2N1
inactive: residual activity [1] 87% | residual activity [2] 100% | residual activity [3] 95% | residual activity [4] 100% | residual activity [5] 92% | residual activity [6] 100% | residual activity [7] 96% | residual activity [8] 85% | residual activity [9] 77% | residual activity [10] 78% | residual activity [11] 87% | residual activity [12] 100% | residual activity [13] 100% | residual activity [14] 100% | residual activity [15] 100% | inhibition [16] 15.1% | residual activity [17] 100% | residual activity [18] 98% | residual activity [19] 97% | residual activity [20] 97% | inhibition [21] 27.1% | residual activity [22] 79% | residual activity [23] 100% | residual activity [24] 65% | residual activity [25] 79% | residual activity [26] 97% | residual activity [27] 84% | residual activity [28] 83% | residual activity [29] 100% | residual activity [30] 99% | residual activity [31] 100% | residual activity [32] 88% | residual activity [33] 100% | residual activity [34] 84% | residual activity [35] 100% | residual activity [36] 100% | residual activity [37] 80% | residual activity [38] 100% | residual activity [39] 93% | residual activity [40] 97% | residual activity [41] 100% | residual activity [42] 87% | residual activity [43] 100% | residual activity [44] 100% | residual activity [45] 94%
